Patent US9303021B2, “Methods for treating cognitive disorders using 3-aryl-3-hydroxy-2-amino-propionic acid amides, 3-heteroaryl-3-hydroxy-2-amino-propionic acid amides and related compounds” (Allergan, Inc., priority 2007, dated 2016)

How the values were obtained:
C57B/6 male mice = experiment: Passive (inhibitory) avoidance task; format: in vivo; details: for Training latency Day 0 (latency to enter the dark/shock compartment): Day 0 is pre-treatment, N = 6/group; for Training latency Day 0 (latency to enter the dark/shock compartment) / Testing latency Day 1 (latency to enter the dark/shock compartment) / Testing latency Day 4 (latency to enter the dark/shock compartment) / Testing latency Day 7 (latency to enter the dark/shock compartment): in s; for Testing latency Day 1 (latency to enter the dark/shock compartment) / Testing latency Day 4 (latency to enter the dark/shock compartment) / Testing latency Day 7 (latency to enter the dark/shock compartment): max trial 180 sec; for memory for the shock-associated environment: IP post-training injections, young mice, versus vehicle
Description: (§1) The passive avoidance task exploits the tendency for rodents to avoid environments previously associated with an aversive stimulus (e.g. shock) and is therefore a reliable measure of emotional memory. The Morris water maze (MWM) task, a test of spatial learning and memory, requires that the animal learns the spatial locations of various extra-maze cues in order to accurately locate an escape platform that is hidden beneath the surface of the water in a water tank.
Table 2, below, indicates the effects of compounds of the invention in a passive avoidance task (latency to enter the dark/shock compartment as dependent variable). Data were analyzed with One-Way ANOVAs followed by Bonferroni-corrected post-hoc measures (required P value dependent upon number of comparisons). The table below includes data from Vehicle-treated mice and mice treated with Compound A and Compound B.
All treatments were administered IP immediately post-training.
Passive Inhibitory Avoidance
C57B/6 male mice (20-25 g; n=6-8/group) were used in this study.
One Day 0, animals were individually placed in the bright side of a 2-chambered inhibitory avoidance box. Mice were given 35 seconds to acclimate after which a door between the two compartments was lifted and the animals were allowed to cross over into the dark compartment. Once they crossed over, the gate would close and the animal would receive a mild (0.15 mA, 2 sec) footshock. Memory retention for the shock-associated environment was evaluated 24 hours (Day 1), 4 (Day 4) and 7 (Day 7) days later. On each of the three memory retention tests (Days 1, 4, and 7), the mouse was given 15 seconds to acclimate before the gate was lifted. Latency to enter the dark (shock) compartment was measured and considered an index of passive fear avoidance. Maximum trial length=180 sec.

aged rats = experiment: Morris water maze task; format: in vivo
Description: as §1
Table 3, below, indicates the effects of Compound C in the Morris water maze task (mean escape latencies across testing days are shown).
Data were analyzed with a Mann-Whitney U Test. Mean escape latency indicates the group mean over three sessions to escape onto the hidden platform. Data are shown for days 7-11 (the water maze training days); animals were dosed twice daily (PO) with 10 mg/kg Compound No. 1 or vehicle (as indicated) on Days 1-6 prior to water maze training.
The Morris Maze consisted of a circular water tank (150 cm in diameter) filled with water and maintained at 27° C. with an escape platform (15 cm in diameter) 18 cm from the perimeter always in the same position 2 cm beneath the surface of the water. The water was made opaque by addition of a non-toxic coloring agent rendering the platform invisible. The testing was performed under light of moderate intensity.
The animals were given 5 training sessions over 5 consecutive days. Each training session consisted of 3 consecutive trials in the Morris Maze separated by 120 seconds. For each trial the animal was placed in the maze at one of two starting points equidistant from the escape platform and allowed to find the escape platform. The animal was left on the escape platform for 60 seconds followed by a 60-second rest in an individual cage before starting a new trial. […] During the 3 trials the animals started the maze from the different starting points in a randomly determined order per animal.
The trials were video-recorded and the behavior of the animals was analyzed using a video-tracking system (Panlab: Smart). The principal measure taken was the escape latency (time to find the hidden platform) at each trial. Additional measures (path length (distance traveled to find the hidden platform) and average speed) were also measured.
Aged animals show amnesia in this task as indicated by a lower capacity to reduce their escape latencies from trial to trial.
15 aged rats were studied per group. The experiment also included a young control group. The test was performed blind.
Compound C was evaluated at the dose of 10 mg/kg, administered p.o., and compared with a vehicle control group. The animals received the assigned treatment twice daily for 6 days prior to water-maze training. Twice daily administration continued during training, with one administration 60 minutes before each training session and the second administration between either 8.30-9.30 am or 4:30-5:30 pm, whichever was furthest from the training session for that particular animal.
The experiment therefore included 3 groups.
Data were analyzed by comparing treated groups with aged control using Mann Whitney U tests. In addition, the data were submitted to a two-factor analysis of variance (with age and session as factors, with repeated measures for session).

[1] = 1 mg/kg IP given immediately post-training
[2] = 1 mg/kg IP immediately post-training
[3] = 10 mg/kg IP given immediately post-training
[4] = 10 mg/kg IP immediately post-training

SMILES	Training latency Day 0 (latency to enter the dark/shock compartment) (C57B/6 male mice; [1])	Testing latency Day 1 (latency to enter the dark/shock compartment) (C57B/6 male mice; [2])	Testing latency Day 4 (latency to enter the dark/shock compartment) (C57B/6 male mice; [2])	Testing latency Day 7 (latency to enter the dark/shock compartment) (C57B/6 male mice; [2])	Training latency Day 0 (latency to enter the dark/shock compartment) (C57B/6 male mice; [3])	Testing latency Day 1 (latency to enter the dark/shock compartment) (C57B/6 male mice; [4])	Testing latency Day 4 (latency to enter the dark/shock compartment) (C57B/6 male mice; [4])	Testing latency Day 7 (latency to enter the dark/shock compartment) (C57B/6 male mice; [4])	memory for the shock-associated environment (C57B/6 male mice)	escape latency of aged rats over the training period (aged rats; 10 mg/kg twice daily for 6 days prior to and during the experiment, compared with aged controls)	effect on escape latency, pooled data of the last 3 training sessions (aged rats; 10 mg/kg twice daily, aged rats versus aged controls)	Mean Escape Latency Day 7 (aged rats; aged rats, 10 mg/kg p.o. twice daily, Day 7 (1st training day)) [s]	Mean Escape Latency Day 8 (aged rats; aged rats, 10 mg/kg p.o. twice daily, Day 8) [s]	Mean Escape Latency Day 9 (aged rats; aged rats, 10 mg/kg p.o. twice daily, Day 9)	Mean Escape Latency Day 10 (aged rats; aged rats, 10 mg/kg p.o. twice daily, Day 10) [s]	Mean Escape Latency Day 11 (aged rats; aged rats, 10 mg/kg p.o. twice daily, Day 11) [s]
N[C@@H](C(=O)N1CCCC1)[C@@H](O)c1ccncc1 [Compound A]	14.26	64.34	65.52	54.32	9.88	82.58	58.33	47.87	significantly improved memory	–	–	–	–	–	–	–
N[C@@H](C(=O)N1CCCCC1)[C@@H](O)c1ccsc1 [Compound B]	6.58	95.42	81	43.55	8.43	126.27	83.4	56.22	significantly improved memory	–	–	–	–	–	–	–
N[C@@H](C(=O)N1CCCC1)[C@@H](O)c1ccncc1 [Compound C]	–	–	–	–	–	–	–	–	–	decreased the escape latency	statistically significant	69.9 ± 4.0	49.3 ± 5.4	41.0 ± 1.8 ⋄ sec	28.0 ± 2.2	30.4 ± 3.4
